According to patent publication US9260500B2, “Peptide and use thereof” (Takeda Pharmaceutical Company Limited, priority 2009, dated 2016):
Non-standard residues stand in square brackets, D forms with d. *: point of attachment. X6 = ((1S)-1-carboxy-2-hydroxyethyl)carbamoyl, O=C(O)[C@H](CO)NC(=O)*; (2-carboxyethyl)carbamoyl = O=C(O)CCNC(=O)*; 4Pal = N[C@@H](Cc1ccncc1)C(=O)O; Cha = N[C@@H](CC1CCCCC1)C(=O)O; Iva = CC[C@](C)(N)C(=O)O; Aib = CC(C)(N)C(=O)O

Legend:
[1] = system: male C57BL/6J mouse; test: 3-Day Continuous Subcutaneous Administration Test-2 (food intake suppressing activity); assay type: in vivo; conditions: 0.03 mg/kg/day, subcutaneous Alzet pump, food consumption as of 2 days after start; versus solvent (50% DMSO) control group
Experimental: (5) Test Method: 3-Day Continuous Subcutaneous Administration Test-2
The food intake suppressing activity of the compound of the present invention was examined by the following method.
The test compound was dissolved in a solvent (50% DMSO) so that sustained release would occur at 0.03 mg/kg/day, and the solution was filled in the Alzet Pump (DURECT Corporation, model: 1003D). After the filling, the pump was immersed in physiological saline for priming, and then used. The pump was embedded by the following method. Each male C57BL/6J mouse at 9-10 weeks of age (25° C., allowed to take food and water ad libitum; 12-hour bright-12-hour dark cycle) was anesthetized; the skin in the upper back thereof was incised, and the above-mentioned pump was embedded subcutaneously; the incision was sutured. After weighing, this mouse was returned to the rearing cage (reared alone), and given previously weighed food; food consumption as of 2 days after the start of administration was measured. The food consumption was calculated by subtracting the amount of remaining food from the weight of the food given on the day of the start of administration. From the food consumption obtained, the food intake suppression rate (%) of each test compound was calculated using the following the formula.
A group receiving administration of the aforementioned solvent alone was the control group.
Food intake suppression rate (%): (Food consumption for control group−food consumption for test compound administration group)/food consumption for control group×100

[2] = target: T1, human Y2 receptor (Homo sapiens, UniProt P49146); test: Receptor Binding Assay (RBA) for Human Y2, [125I]-PYY displacement on hY2R/CHO membrane fraction; conditions: IC50 of test compound/IC50 of PYY(3-36) (PYY(3-36) taken as 1)
T1 construct: expressed in transfected cells; membrane fraction
T1 sequence (P49146 1-381): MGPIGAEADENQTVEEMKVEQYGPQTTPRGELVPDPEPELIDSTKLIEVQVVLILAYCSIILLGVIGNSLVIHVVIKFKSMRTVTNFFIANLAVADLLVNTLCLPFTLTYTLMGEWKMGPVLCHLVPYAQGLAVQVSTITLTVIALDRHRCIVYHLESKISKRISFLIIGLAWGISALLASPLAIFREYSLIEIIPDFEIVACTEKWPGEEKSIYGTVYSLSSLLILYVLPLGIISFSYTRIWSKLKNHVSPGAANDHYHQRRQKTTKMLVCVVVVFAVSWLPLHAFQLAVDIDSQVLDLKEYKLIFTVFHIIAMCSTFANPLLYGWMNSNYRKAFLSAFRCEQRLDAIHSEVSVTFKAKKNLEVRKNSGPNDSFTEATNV
Method in brief: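 hY2R stably expressed in CHO/dhfr− cells; membrane fraction prepared from cells disrupted in 10 mM NaHCO3, 5 mM EDTA buffer with protease inhibitors. Binding read as displacement of [125I]-PYY.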

[3] = system: male C57EL/6J mice; test: 3-Days Continuous Subcutaneous Administration Test-1 (food intake suppressing activity); assay type: in vivo, mouse; conditions: 0.03 mg/kg/day, subcutaneous Alzet pump, food consumption over 3 days; relative to food intake suppression rate for PYY(3-36) (1 mg/kg/day) taken as 100%
Method in brief: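 Male […] mice, 12-13 weeks, received compound at 0.03 mg/kg/day by subcutaneous osmotic pump (50% DMSO vehicle), housed singly with free food access. Food consumed over 3 days measured; suppression expressed relative to PYY(3-36) (1 mg/kg/day) set as 100%.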

[4] = target: T1, human Y2 receptor; test: Human Y2 Receptor G Protein Binding Assay (GBA), [35S]GTPγS; assay type: biochemical; conditions: EC50 of test compound/EC50 of PYY(3-36) (PYY3-36 taken as 1), hY2R/CHO membrane fraction
Method in brief: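 Agonism measured as [35S]GTPγS binding, read by GF/C filtration and scintillation counting after 120 min at room temperature, using human Y2 membranes at 1 μg protein/mL in pH 7.4 Tris/MgCl2/NaCl/GDP buffer. Compound serially diluted 100 μM–1 nM; EC50 normalized to PYY(3-36) (ratio = compound/PYY).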

Substance	food intake suppression rate (%) [1] [%]	also measured
Thp(4)-CO-[D-Hyp24, Iva25, Pya(4)26, Cha27,36, Leu(Me)28, Lys30, Aib31]-PYY(23-36) [compound No. 361]	23.3	
Thp(4)-CH2NHCO-[D-Hyp24, Iva25, Pya(4)26, Cha27,36, Leu(Me)28, Lys30, Aib31]-PYY(23-36) [compound No. 359]	43.4	
Carbamoyl-[D-Hyp24, Iva25, Pya(4)26, Cha27,36, Leu(Me)28, Lys30, Aib31]-PYY(23-36) [compound No. 364]	37.3	
4-Imidazolecarbonyl-[D-Hyp24, Iva25, Pya(4)26, Cha27,36, Leu(Me)28, Lys(Ac)30, D-Iva31]-PYY(23-36) [compound No. 369]	47.8	
4-Imidazolecarbonyl-[D-Hyp24, Iva25, Pya(4)26, Cha27,36, Iva28, Lys30, D-Iva31]-PYY(23-36) [compound No. 372]	27.2	
4-Imidazolecarbonyl-[D-Hyp24, Pya(4)26, Cha27,36, Leu(Me)28, Lys30, Aib31]-PYY(23-36) [compound No. 370]	17.9	
4-Imidazolecarbonyl-[D-Pro24, Pya(4)26, Cha27,36, Iva28, Lys(Ac)30, Aib31]-PYY(23-36) [compound No. 371]	18.6	
Ac-[Glu23, D-Pro24, Iva25, Pya(4)26, Cha27,36, Leu(Me)28, Lys30, Aib31]-PYY(23-36) [compound No. 363]	27.7	
4-Imidazolecarbonyl-[D-Pro24, Iva25, Pya(4)26, Cha27,36, Leu(Me)28, Lys(Ac)30, Aib31]-PYY(23-36) [compound No. 365]	37.8	
4-Imidazolecarbonyl-[D-Hyp24, Iva25, Pya(4)26, Cha27,36, Leu(Me)28, Lys(Ac)30, Aib31]-PYY(23-36) [compound No. 362]	54.2	
Thp(4)-NHCO-[D-Hyp24, Iva25, Pya(4)26, Cha27,36, Leu(Me)28, Lys30, Aib31]-PYY(23-36) [compound No. 358]	62.5	
4-Imidazolecarbonyl-[D-Hyp24, Iva25, Pya(4)26, Cha27, Leu(Me)28, Lys30, Aib31, Phe(2,6-Me2)36]-PYY(23-36) [compound No. 360]	36.7	
4-Imidazolecarbonyl-[D-Hyp24, Iva25, Pya(4)26, Cha27,36, Leu(Me)28, Har30, Aib31]-PYY(23-36) [compound No. 367]	24.0	
4-Imidazolecarbonyl-[Aib24,31, Iva25, Pya(4)26, Cha27,36, Leu(Me)28, Lys(Ac)30]-PYY(23-36) [compound No. 368]	34.9	
4-Imidazolecarbonyl-[D-Pro24, Pya(4)26, Cha27,36, Iva28, Lys30, Aib31]-PYY(23-36) [compound No. 366]	32.9	
[D-Hyp24, Iva25, Pya(4)26, Cha27,36, Leu(Me)28, Lys(Ac)30, Aib31]-PYY(23-36) [compound No. 373]	17.5	
4-Imidazolecarbonyl-[D-Hyp24, Pya(4)26, Cha27,36, Iva28, Lys(Ac)30, D-Iva31]-PYY(23-36) [compound No. 374]	22.6	
[(1S)-1-carboxy-2-hydroxyethyl]carbamoyl-[D-Pro24, Pya(4)26, Cha27,36, Aib28,31, Lys30]-PYY(23-36) (X6-S[dP]R[4Pal][Cha][Aib]NK[Aib]TRQR[Cha]-NH2; SMILES C[C@@H](O)[C@H](NC(=O)C(C)(C)NC(=O)[C@H](CCCCN)NC(=O)[C@H](CC(N)=O)NC(=O)C(C)(C)NC(=O)[C@H](CC1CCCCC1)NC(=O)[C@H](Cc1ccncc1)NC(=O)[C@H](CCCNC(=N)N)NC(=O)[C@H]1CCCN1C(=O)[C@H](CO)NC(=O)N[C@@H](CO)C(=O)O)C(=O)N[C@@H](CCCNC(=N)N)C(=O)N[C@@H](CCC(N)=O)C(=O)N[C@@H](CCCNC(=N)N)C(=O)N[C@@H](CC1CCCCC1)C(N)=O) [compound No. 288]		RBA IC50 Ratio [2]: 0.52; food intake suppression rate (%) [3]: 28%; GBA EC50 Ratio [4]: 1.3
(2-Carboxyethyl)carbamoyl-[D-Pro24, Iva25, Pya(4)26, Cha27,36, Aib28,31, Lys30]-PYY(23-36) ({(2-carboxyethyl)carbamoyl}-S[dP][Iva][4Pal][Cha][Aib]NK[Aib]TRQR[Cha]-NH2; SMILES CC[C@](C)(NC(=O)[C@H]1CCCN1C(=O)[C@H](CO)NC(=O)NCCC(=O)O)C(=O)N[C@@H](Cc1ccncc1)C(=O)N[C@@H](CC1CCCCC1)C(=O)NC(C)(C)C(=O)N[C@@H](CC(N)=O)C(=O)N[C@@H](CCCCN)C(=O)NC(C)(C)C(=O)N[C@H](C(=O)N[C@@H](CCCNC(=N)N)C(=O)N[C@@H](CCC(N)=O)C(=O)N[C@@H](CCCNC(=N)N)C(=O)N[C@@H](CC1CCCCC1)C(N)=O)[C@@H](C)O) [compound No. 341]		RBA IC50 Ratio [2]: 3.2; food intake suppression rate (%) [3]: 35%; GBA EC50 Ratio [4]: 2.4
